Data taken from patent EP0831877B1, “METABOLIC EFFECTS OF CERTAIN GLUTATHIONE ANALOGS” (TELIK, INC., priority 1995, dated 1996).
Values joined by “and” are separate entries in the source; they are usually repeats but may differ in a detail not shown here. Identical values can stand only once.

Assays:
[1] = tested on: normal human bone marrow multipotential (CFU-GEMM) progenitor cells; assay: colony formation, human bone marrow CFU-GEMM; type: cell-based; details: EPO + 50 ng/ml SLF
Experimental: (§1) The effects are dose-dependent, usually in the range of 1.0 to 10.0 µM, and in most cases for cells stimulated by GM-CSF, G-CSF, M-CSF, Flt3/Flk-2 and Steel factor (stem cell factor/c-kit ligand). Of particular interest was the finding that TER199 enhances colony formation stimulated by combinations of cytokines. Additionally, the enhancing effect is more pronounced in human than in murine bone marrow.

peripheral blood cells [2] = assay: peripheral blood response to 5-FU with oral TER199 in mice; type: in vivo; details: 150 mg/kg 5-FU IP, 24 hours later oral 150 mg/kg TER199, versus 5-FU alone
Experimental: The mice were bled through the retroorbital plexus and the blood samples were analyzed for changes in blood counts.

bone marrow GM-CFU [3] = assay: cyclophosphamide-induced GM-CFU suppression in mice; type: in vivo
peripheral blood cells [4] = assay: peripheral blood response to 5-FU with i.p. TER199 in rats; type: in vivo, Sprague-Dawley derived rats; details: 5-FU 150 mg/kg i.p. day one
Experimental: Sprague-Dawley derived rats were treated according to the schedule below (Table 11).

[5] = tested on: HT4-1, a subclone of HT-29; assay: standard clonogenic assay, potentiation of drug toxicity, HT4-1
Experimental: Four chemotherapeutic drugs, chlorambucil, adriamycin, mitomycin C and doxorubicin were used as the toxic agents. In these assays, the cells were seeded at 300 cells/well in 2 ml of medium in 6-well plates in the presence of the compounds used in the invention as the diethyl esters. […] After incubation for 1-2 hours to permit cells to attach, varying doses of the chemotherapeutic agents were added. At least three replicate wells were plated for each test condition and the plates were incubated for two weeks. […] IC50 values were determined for the chemotherapeutic agent in the presence or absence of the compound used in the invention and dose modification factors were calculated by dividing the IC50 value of drug without the compound by the IC50 value of the drug with the compound.

[6] = tested on: CD34^+++ cells from human cord blood or bone marrow; assay: CD34+++ cell differentiation in the presence of cytokines; type: cell-based; details: 0.1 µM-10 µM TER199, erythropoietin 1 unit/ml, IL-3 100 unit/ml
[7] = tested on: normal human bone marrow erythroid (BFU-E) progenitor cells; assay: colony formation, human bone marrow BFU-E; type: cell-based
Experimental: as §1

HT-29 cells = assay: Cytosensor Microphysiometer acidification rates; type: cell-based, human; details: 4 hours pretreatment, TER199 20 µM, ethacrynic acid 50 µM
Experimental: The metabolic effects related to toxicity of the compounds of the invention on HT-29 cells, were tested using a Cytosensor Microphysiometer made by Molecular Devices, Inc., Menlo Park, CA and described in McConnell, H.M. et al. Science (1992) 257:1906-1912 and by Wada, H.G. et al. AATEX (1992) 1:154-164. Changes in pH of the culture medium are measured as a function of cellular metabolism. Acidification rates of the small volume of liquid flowing over the cells correlate with the number of live cells in the reaction chamber; a reduction of acidification rate reflects reduced numbers of surviving cells. […] The medium was then replaced with serum-free low buffer capacity medium and Microphysiometer analysis was initiated.

[8] = tested on: HT-29 (human colon adenocarcinoma) cells; assay: modified clonogenic assay, potentiation of chlorambucil cytotoxicity; type: cell-based; details: chlorambucil, mean ±S.D. of 2-3 experiments; for DMF (dose modification factor), Diethyl ester: HT-29, dose tested 12.5 µM
Experimental: HT-29 (human colon adenocarcinoma) cells were obtained from Dr. Roberto Ceriani (Cancer Research Fund of Contra Costa County, Walnut Creek, CA) and were used in log phase of growth unless otherwise specified. Chlorambucil (CMB) was obtained from Sigma (St. Louis, MO) and was dissolved in 100% ethanol. All GST inhibitors were dissolved in ethanol, DMSO, or water just prior to use. The same amount of solvent added to culture medium served as the vehicle control.
In a modified clonogenic assay for cytotoxicity, cells were suspended at 2 x 10^5 cells/ml in serum-free medium in the presence of vehicle or inhibitor. […] Cells were incubated for 2 hours, then varying doses of CMB were added. At the end of a second 2-hour incubation, cells were diluted to 7.5-10 x 10^3/ml in serum-containing medium and plated in quadruplicate at 200 µl/well in Microtest III microtiter plates.
Plates were incubated for 6 days and assayed by a modified methylene blue method. Briefly, cells were fixed with 1.25% glutaraldehyde in PBS then stained with 0.05% methylene blue in distilled water. Plates were washed several times in distilled water to remove unretained dye and retained dye was resolubilized in 0.03 N HCl. Plates were read at 650 nm in a Molecular Devices Vmax plate reader (Molecular Devices, Redwood City, CA). […] A dose modification factor (DMF), a measure of potentiation of cytotoxicity, was calculated for each inhibitor by dividing the IC50 value of CMB without inhibitor treatment by the IC50 value for CMB with inhibitor treatment.

bone marrow GM-CFU [9] = assay: stimulation of bone marrow GM-CFU after administration to mice; type: in vivo, B6D2F1 mice; details: for most effective dose on bone marrow GM-CFU (Figure 4a): single treatment, harvest 24 hours
Experimental: In an illustrative assay three B6D2F1 mice were treated with various doses of benzyl PG intraperitoneally.
Mice in the control group were injected with water or saline. Bone marrow cells were harvested 24 hours after drug treatment and added to alpha minimum essential medium (alpha MEM) supplemented with methylcellulose (0.8% w/v), fetal bovine serum (20% v/v), deionized BSA (1% w/v), Pokeweed mitogen-stimulated spleen-cell conditioned medium (PWM-SCCM)^1 (10% v/v) and gentamycin (50 Tg/ml). One ml aliquots were plated (four replicate plates) and incubated for seven days at 37 °C. […] Spleens were removed aseptically from four male B6D2F1 mice enforced through a 200 Tm wire mesh screen to obtain a single cell suspension. Ten ml of the suspension (2-4 X 10^7 cell/ml was added to 90 ml alpha-MEM supplemented with 1% deionized BSA, 50 Tg/ml gentamicin, 0.3% freshly reconstituted pokeweed antigen, 10 µM 2-mercaptoethanol. The mixture was incubated for 5 days at […] in a 5% CO2 atmosphere and the result-ing conditioned medium was centrifuged at 800g for ten minutes and filtered through a 0.22 Tm filter. Aliquots were kept frozen at […] until use.
Bone marrow was harvested 24 hours after administering the compounds and GM-CFU levels measured as described above.

[10] = TER199 60 mg/kg b.i.d. or 120 mg/kg q.d. i.p. day 2-10
[11] = HT4-1, TER199 at 25 µM, TER183 dose not given
[12] = EPO + 50 ng/ml SLF, TER199 1.0 µM
[13] = EPO + 50 ng/ml SLF, TER199 10 µM

CCOC(=O)[C@@H](N)CCC(=O)N[C@@H](CSCc1ccccc1)C(=O)N[C@@H](C(=O)OCC)c1ccccc1 [TER199, γE ethyl ester-C(Bz)-R-(-)-ϕG ethyl ester]
Colony number ([1]; TER199 0.1 µM): 12±1 and 19±2
Colony number ([1]; TER199 1.0 µM): 17±2 and 23±2
% change from control ([1]; TER199 10 µM): 60% and 36%
Colony number ([1]; TER199 10 µM): 16±1 and 30±1
lymphocytes (Figure 15c) (peripheral blood cells [2]): no differences were found
monocytes (Figure 15d) (peripheral blood cells [2]): statistically significant difference only on day 9
neutrophils (Figure 15b) (peripheral blood cells [2]): statistically significant difference was obtained only on day 9
total white cell counts (Figure 15a) (peripheral blood cells [2]): essentially no significant difference
cyclophosphamide-induced GM-CFU suppression (Figure 13, panel A) (bone marrow GM-CFU [3]; TER199 120 mg/kg, i.p. 24 hours after cyclophosphamide 200 mg/kg, i.p.): reduces GM-CFU suppression
cyclophosphamide-induced GM-CFU suppression (Figure 13, panel B) (bone marrow GM-CFU [3]; TER199 150 mg/kg, p.o.): similarly effective
platelet levels (Figure 14) (peripheral blood cells [4]; [10]): recovered to normal levels by study Day 12
white blood cell, neutrophil, and lymphocyte levels (Figure 14) (peripheral blood cells [4]; [10]): reached pretest levels sooner than the 5-FU-treated group
red blood cell counts (Figure 14) (peripheral blood cells [4]; TER199 i.p. day 2-10, compared to 5-FU control animals): observed decrease is reduced
survival of tumor cells treated with varying dosages of chlorambucil (Figure 1a) ([5]; 25 µM compound added to chlorambucil): survival rate is markedly diminished
DMF for Doxorubicin ([5]; HT4-1, TER199 at 25 µM): 1.20
DMF for Adriamycin [5, 11]: 1.2
DMF for Chlorambucil [5, 11]: 2.39
DMF for Mitomycin C [5, 11]: 1.03
survival of HT4-1 cells in the presence of the compound alone (Figure 1b) ([5]; HT4-1 cells): clearly toxic
BFU-E (Figure 16) [6]: modest positive effects
CFU-GEMM colony formation (Figure 16) ([6]; steel factor 50 ng/ml): modest positive effects
Colony number ([7]; EPO 1 U/ml, TER199 0.1 µM): 35±3 and 38±3
Colony number ([7]; EPO 1 U/ml, TER199 1.0 µM): 60±2 and 58±1
Colony number ([7]; EPO 1 U/ml, TER199 10 µM): 57±4 and 59±2
Colony number ([7]; EPO + 50 ng/ml SLF, TER199 0.1 µM): 92±4 and 80±5
% change from control [7, 12]: 22% and 35%
Colony number [7, 12]: 107±7 and 80±3
% change from control [7, 13]: 24% and 29%
Colony number [7, 13]: 109±2 and 85±3
effect on acidification rates, compound alone (Figure 2) (HT-29 cells; no chlorambucil): Neither γE-C(Bz)-ϕG diethylester (TER199) nor ethacrynic acid alone had any appreciable effect
effect of pretreatment on acidification rates with chlorambucil (Figure 2) (HT-29 cells; then 100 µM chlorambucil): potentiated the effect of chlorambucil
DMF (dose modification factor), Diethyl ester [8]: 1.65
DMF (dose modification factor), Diethyl ester ([8]; listed as γE-C(Bz)-ϕG diethyl ester): 1.65 ± 0.04
DMF of DEE ([8]; diethyl ester): 1.651
GM-CFU (bone marrow GM-CFU [9]; 90 mg/kg intraperitoneally, marrow harvested 24 hours later, controls about 140): approximately 275 colonies/10^4 nucleated cells
most effective dose on bone marrow GM-CFU (Figure 4a) (bone marrow GM-CFU [9]; IP administration): 60 to 90 mg/kg
effect on GM-CFU as a function of dosage, ester/amide forms (Figure 7) (bone marrow GM-CFU [9]; bone marrow harvested 24 hours after administering): significantly more effective than the mixed ester amide (TER300)
most effective dose on bone marrow GM-CFU (Figure 4a) (bone marrow GM-CFU [9]; oral administration): 120 to 180 mg/kg
time of maximum stimulation of GM-CFU (Figure 5) (bone marrow GM-CFU [9]; single 60 mg/kg dose IP on day 0): day 2 and day 5
